This is an account of results in patent publication US20120213826A1, “Use of Pro-Inflammatory Compounds for Promoting Bone Formation” (Imperial Innovations Limited, priority 2009, published 2012).

Data set [1] deals with fractured ribs. Particulars: daily intraperitoneal 400 μg/kg body weight per day after fracture, rats; cited from earlier work.
Data set [2] deals with murine open tibial fracture. In words: Murine open tibial fracture model, periosteally stripped (histology, CT scans). Format: in vivo, C57BI/6 mice.
Data set [3] has as its system muscle-derived stromal cells (MDSC). Briefly: MDSC migration through a transwell membrane. Format: cell-based, human. As to the method:
Migration of 1×10^4 MDSC through an 8 μm pore transwell membrane over 36 hours, in response to fracture supernatant with the addition of AbTNF-α, AbIL-6 and AbIL-1β. The IgG^1 immunoglobulin was used as the antibody control. B: Migration in response to rhTNF-α, rhIL-6 and rhIL-1β in human serum-containing media. Results represent change in cell number, expressed as a percentage of the supernatant, or media only control. Each experiment was performed 3 times (n=3) using 3 fracture supernatants (in A). Results represent mean of 3 experiments ±SEM. *: P<0.05; **: P<0.01; ***: P<0.001; 1-way ANOVA with Bonferroni's multiple comparison test.
MDSC must be recruited to the fracture site from adjacent muscle. Next we assessed the efficacy of the pro-inflammatory cytokines in attracting MDSC in vitro using a transwell assay. 1×10^4 MDSC were seeded onto a 8 μm transwell membrane in serum free media. Next day, the transwell membrane was added to a well containing 10% human serum-containing media +IL-1β, IL6 and TNFα at the end concentrations shown. At 24 hrs the membrane was cleared of any cells on the seeded side, fixed and stained. IL-1β appeared not promote MDSC chemotaxis.
500 μl serum free media was added to each well of a 24 well plate. 8 μm pore transwell membranes (VWR International Ltd) were then added to the wells. 1×10^4 MDSC in serum free media were added to the upper chamber of each transwell membrane. At 12 hours the serum-free media was replaced with test or control media or supernatant and incubated at 37° C. for 36 hours. The upper chambers were then cleared of cells and cell debris using a cotton bud, in sweeping motions. The membrane was then washed and fixed using 10% neutral buffered formalin for 1 hour. After washing, the membrane was then added to a 1% crystal violet solution for 1 hour. After further washing, the membranes were viewed under light microscopy at 20 times magnification, using an Olympus CKX41 microscope with a QICAM camera, (QIMAGING, GT vision LLC). The number of cells present on the underside of the transwell membrane in any random field was counted 3 times and the mean calculated. Cell migration was calculated against the supernatant or human serum-containing (control) media and the number expressed as a percentage relative to the control media.

The conditions of data set [4]: cited from earlier work.
The subject of data set [5] is osteoclast. Conditions: TNF-α at 1 ng/ml; cited from earlier work.
Data set [6] relates to muscle-derived stromal cells (MDSC). In words: Bone nodule formation by MDSC (alizarin red staining). Type of data set: cell-based, human. An excerpt:
FIG. 26 TNF-α and IL-6 promote osteogenic differentiation of MDSC A-D: ALP quantification assays after culture of 1×10^4 MDSC for 7 days in a 96-well plate in triplicate with: A: fracture supernatant, ±antibody neutralization of BMPs 2/4 7 and to TGF-β. The immunoglobulin isotype controls used included IgG^1 for AbBMP-2/4 and AbTGF-β, and IgG^2B for Ab-BMP-7. B: human serum containing culture medium with the addition of recombinant human BMPs and TGF-β. C: fracture supernatant±antibody neutralization of TNF-α, IL-6 and IL-1β. The IgG^1 immunoglobulin was used as the antibody isotype control. D: human serum-containing culture medium with the addition of recombinant human TNF-α, IL-6 and IL-1β. E: Alizarin red staining for bone nodule formation after culture of 1×10^4 MDSC in human serum-containing media. Recombinant human cytokine at the optimal dose indicated by D, was added for the first 3 days ONLY, and the cells were subsequently cultured in media for 32 days. A representative image from a single well is shown. All experiments were performed 3 times, in triplicate (n=3) using MDSC from 3 donors. Values for A-D represent a mean from 3 experiments ±SEM, using supernatant from 3 donors in A and C. *: P<0.05; **: P<0.01; ***: P<0.001; 1-way ANOVA with Bonferroni's multiple comparison test in A and C and with Dunnett's multiple comparison test against the media only control in B and D.
1×10^4 MDSC were added to wells of a 24-well plate in triplicate. The cells were cultured for 35-40 days in osteogenic media (DMEM with 10% fetal calf serum and 1% penicillin/streptomycin also containing 100 nM dexamethasone (SIGMA), 1 mM β-glycerol phosphate and […] ascorbic acid), supernatant or media containing recombinant cytokines (with one media change per week) the cells were fixed with 2 ml 10% neutral buffered formalin at room temperature for 15 min. The plate was then washed twice with excess PBS. 1 ml filtered 40 mM alizarin red solution (pH 4.1) was added to each well and agitated at room temperature for 30 minutes. The excess dye was then aspirated and the plate washed four times in distilled water with gentle agitation. Finally, the plates were turned upside-down on paper to dry. Bone nodules appeared red under light microscopy. Images were taken at 20 times magnification and performed as above.

Entries after “also recorded” stand apart in the source; their conditions may differ. Read-outs that look alike come from different tables or passages of the source.

TNFα: the fracture healing result is “significantly inhibited” in data set [1]; “less pronounced effect” in data set [2] (TNFα 5 ng/ml at fracture site (FIG. 18)); “inhibitory” in data set [2] (TNFα 500 ng/ml (500 ng/kg) at fracture site, versus PBS vehicle (FIG. 18)); “inhibits fracture healing” in data set [2] (TNFα 500 ng/ml (500 ng/kg) at fracture site, versus PBS vehicle (FIG. 18), listed as rhTNFα). The “optimal dose for fracture healing” value in data set [2] (20 μl in PBS at fracture site, histology day 14 (FIG. 18)) is 50 ng/mL. Also, the “optimal dose range for fracture healing” value in data set [2] (20 μl in PBS, 1 ng/ml equivalent to 1 ng/kg, histology day 14 (FIG. 18)) is reported as “around 50 ng/kg”. Besides, the “healing of tibial fractures by CT scans” value in data set [2] (28 days post injury, local administration at fracture site (TNFα 50 ng/kg and HMGB1 at time of fracture and 24 hr later) (FIG. 19, 30)) is given as “improved healing”. The “fracture healing compared to control C57BI/6 mice” value in data set [2] (exogenous addition at fracture site, histology day 14, log dose range 5-500 ng/ml (FIG. 18)) is “accelerated fracture healing”. The “chemotaxis / migration of MDSC” value in data set [3] (Example 1, transwell, 10% human serum-containing media, 24 hrs (FIG. 14)) was “promote chemotaxis of MDSC; also recorded: promoted migration of MDSC”. In data set [3] (Example 3, 8 μm transwell, 36 hours, recombinant cytokine in human serum-containing media (FIG. 27B)), the “migration of MDSC” value was “chemo attractant for MDSC”. In data set [3] (Example 3, transwell, 36 hours (FIG. 27B)), the “optimal concentration for MDSC migration” value is 1 pg/mL. Moreover, the plasma half life result in data set [4] (in the presence of soluble TNFα receptors) is recorded as “up to 6 hours”; in data set [4] (in vivo) it was “less than 1 hour”. Also, in data set [5], the “decrease of osteoclast number” value was more than 90%. For the same substance, the “bone nodule formation by MDSC” value is “promoted; also recorded: pronounced bone nodule formation” in data set [6] (Example 1, cytokine at 1 ng/ml, 5 weeks (FIG. 13)) and “stimulated vigorous nodule formation” in data set [6] (Example 3, recombinant cytokine at optimal dose for first 3 days, human serum-containing media (FIG. 26E)).
